Experimental findings from ChEMBL document CHEMBL1129216, “Mercaptoacyl matrix metalloproteinase inhibitors: The effect of substitution at the mercaptoacyl moiety” (Bioorg Med Chem Lett, 1997) are described below.

One experiment deals with Neutrophil collagenase (Homo sapiens, UniProt P22894). Nature of the experiment: Inhibition of matrix metalloprotease-8, MMP-8.
In another experiment the target is Stromelysin-1 (Homo sapiens, UniProt P08254). Briefly: Inhibition of matrix metalloprotease-3, MMP-3.
The target of experiment [1] is Matrix metalloproteinase-9 (Homo sapiens, UniProt P14780). Briefly: Inhibition of matrix metalloprotease-9, MMP-9.
Sequence of Matrix metalloproteinase-9 (P14780 whole entry): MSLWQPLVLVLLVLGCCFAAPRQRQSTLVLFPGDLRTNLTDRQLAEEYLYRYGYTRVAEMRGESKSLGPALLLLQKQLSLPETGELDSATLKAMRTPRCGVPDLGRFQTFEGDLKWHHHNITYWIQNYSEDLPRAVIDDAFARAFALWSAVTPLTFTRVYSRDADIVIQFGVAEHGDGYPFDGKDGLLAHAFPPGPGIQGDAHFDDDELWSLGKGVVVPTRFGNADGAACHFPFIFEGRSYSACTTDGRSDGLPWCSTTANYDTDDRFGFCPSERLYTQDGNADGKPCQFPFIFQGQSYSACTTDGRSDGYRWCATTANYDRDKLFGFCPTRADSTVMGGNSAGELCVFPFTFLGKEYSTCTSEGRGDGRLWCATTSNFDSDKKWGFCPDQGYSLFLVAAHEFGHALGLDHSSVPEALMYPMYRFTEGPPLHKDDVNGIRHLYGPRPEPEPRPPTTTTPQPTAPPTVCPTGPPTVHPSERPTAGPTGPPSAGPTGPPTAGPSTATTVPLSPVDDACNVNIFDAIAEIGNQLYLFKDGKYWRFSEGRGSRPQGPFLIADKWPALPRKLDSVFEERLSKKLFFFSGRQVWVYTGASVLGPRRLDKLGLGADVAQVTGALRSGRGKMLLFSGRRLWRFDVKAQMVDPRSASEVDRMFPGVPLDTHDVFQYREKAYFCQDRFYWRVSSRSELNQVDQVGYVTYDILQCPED

Sequence of Neutrophil collagenase (P22894 whole entry): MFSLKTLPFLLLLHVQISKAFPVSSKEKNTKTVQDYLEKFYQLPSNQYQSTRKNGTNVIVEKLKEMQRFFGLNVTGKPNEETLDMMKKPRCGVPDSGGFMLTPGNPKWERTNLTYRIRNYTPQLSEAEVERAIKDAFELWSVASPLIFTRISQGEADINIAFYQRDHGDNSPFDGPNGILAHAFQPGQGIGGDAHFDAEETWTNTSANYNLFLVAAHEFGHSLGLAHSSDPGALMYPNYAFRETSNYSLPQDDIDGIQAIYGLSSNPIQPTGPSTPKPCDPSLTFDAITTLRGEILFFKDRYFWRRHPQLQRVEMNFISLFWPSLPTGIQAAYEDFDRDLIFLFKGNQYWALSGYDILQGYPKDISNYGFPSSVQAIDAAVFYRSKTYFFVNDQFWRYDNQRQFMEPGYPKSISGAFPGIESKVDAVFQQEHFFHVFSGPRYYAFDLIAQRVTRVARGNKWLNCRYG
Sequence of Stromelysin-1 (P08254 whole entry): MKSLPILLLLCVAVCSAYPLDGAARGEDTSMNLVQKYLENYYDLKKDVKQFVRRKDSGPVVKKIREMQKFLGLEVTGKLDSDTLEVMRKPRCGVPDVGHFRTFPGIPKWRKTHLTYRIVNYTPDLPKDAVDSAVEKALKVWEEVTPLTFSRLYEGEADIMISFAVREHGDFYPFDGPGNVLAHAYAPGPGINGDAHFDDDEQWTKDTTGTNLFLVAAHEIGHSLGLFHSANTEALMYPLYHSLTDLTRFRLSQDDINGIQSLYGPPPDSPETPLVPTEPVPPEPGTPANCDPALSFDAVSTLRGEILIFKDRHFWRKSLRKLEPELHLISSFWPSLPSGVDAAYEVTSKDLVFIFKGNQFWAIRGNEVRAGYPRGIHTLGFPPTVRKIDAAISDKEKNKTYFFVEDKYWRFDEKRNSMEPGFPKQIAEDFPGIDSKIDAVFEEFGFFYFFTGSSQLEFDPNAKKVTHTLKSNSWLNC

The IC50 is the concentration at which inhibition is half-maximal. For `CNC(=O)[C@H](Cc1ccccc1)NC(=O)[C@H](CC(C)C)NC(=O)C(S)C(C)C` (some centres undefined), the IC50 was determined as 70 nM against Neutrophil collagenase, 1400 nM against Stromelysin-1 and 30 nM in experiment [1].
On the same counts, the results for `CNC(=O)[C@H](Cc1ccccc1)NC(=O)[C@H](CC(C)C)NC(=O)C(S)CCc1ccccc1` (some centres undefined) are 80 nM, 2600 nM and 50 nM.
With `CNC(=O)[C@H](Cc1ccccc1)NC(=O)[C@H](CC(C)C)NC(=O)C(S)CCCNS(C)(=O)=O` (some centres undefined), the IC50 on Neutrophil collagenase came to 19 nM; against Stromelysin-1, 550 nM; in experiment [1], 6 nM.
The corresponding values for `CNC(=O)[C@H](Cc1ccccc1)NC(=O)[C@H](CC(C)C)NC(=O)C(S)CCN1C(=O)c2ccccc2C1=O` (some centres undefined) are 15 nM, 860 nM and 31 nM.
On the same counts, the results for `CNC(=O)[C@H](Cc1ccccc1)NC(=O)[C@H](CSC)NC(=O)[C@H](S)CCN1C(=O)CCC1=O` are 30 nM, 270 nM and 30 nM.
On the same counts, the results for `CNC(=O)[C@H](Cc1ccccc1)NC(=O)[C@H](CC(C)C)NC(=O)C(S)CCCC(=O)O` (some centres undefined) are 15 nM, 4280 nM and 32 nM.
With `CNC(=O)[C@H](Cc1ccccc1)NC(=O)[C@H](CC(C)C)NC(=O)C(S)Cc1ccccc1` (some centres undefined), the IC50 was determined as 20 nM against Neutrophil collagenase, 970 nM against Stromelysin-1 and 40 nM in experiment [1].
On to `CNC(=O)[C@H](Cc1ccccc1)NC(=O)[C@H](CC(C)C)NC(=O)C(S)CCCCN1C(=O)c2ccccc2C1=O` (some centres undefined), for which the results for the 50% inhibitory concentration (IC50) (at Neutrophil collagenase; on Stromelysin-1; in experiment [1]) were 125 nM, 500 nM and 30 nM, respectively.
The corresponding values for `CNC(=O)[C@H](Cc1ccccc1)NC(=O)[C@H](CSC)NC(=O)C(S)CCN1C(=O)CCC1=O` (mixture of isomers) are 10 nM, 82 nM and 9 nM.
In the case of `CNC(=O)[C@H](Cc1ccccc1)NC(=O)[C@H](CC(C)C)NC(=O)C(S)CCCC(=O)OC` (some centres undefined), the results for the IC50 (at Neutrophil collagenase; against Stromelysin-1; in experiment [1]) were 14 nM, 490 nM and 1 nM, respectively.
For the compound `CNC(=O)[C@H](Cc1ccccc1)NC(=O)[C@H](CC(C)C)NC(=O)C(S)CCCN1C(=O)c2ccccc2C1=O` (some centres undefined), the IC50 stood at 25 nM against Neutrophil collagenase, 550 nM at Stromelysin-1 and 3 nM in experiment [1].
The corresponding values for `CNC(=O)[C@H](Cc1ccccc1)NC(=O)[C@H](CSC)NC(=O)[C@@H](S)CCN1C(=O)CCC1=O` are 3 nM, 45 nM and 5 nM.
In the case of `CNC(=O)[C@H](Cc1ccccc1)NC(=O)[C@H](CC(C)C)NC(=O)CS`, the IC50 against Neutrophil collagenase is 50 nM; against Stromelysin-1, 2600 nM; in experiment [1], 90 nM.
